Reference: EPA's CvTdb concentration-time database

Assays:
[1] = test system: Rat; assay: concentration in brain after dosing
[2] = test system: Rat; assay: concentration in plasma after dosing
[3] = test system: Mouse; assay: concentration in plasma after dosing; details: dosed: 2,4-Dichlorophenoxyacetic acid, Male, B6C3F1

CC(C)[C@]12CC(=O)[C@H](C)[C@H]1C2 [alpha-Thujone]
dosed: alpha-Thujone, oral
Details | concentration in brain, [1] [ng/g] | concentration in plasma, [2] [µg/mL]
0.5 h, 25 mg/kg, Female, Harlan Sprague Dawley | 801 | 0.189
0.5 h, 25 mg/kg, Male, Harlan Sprague Dawley | 689 | 0.407
0.5 h, 50 mg/kg, Female, Harlan Sprague Dawley | 1350 | 0.474
0.5 h, 50 mg/kg, Male, Harlan Sprague Dawley | 2470 | 0.71
1.5 h, 25 mg/kg, Male, Harlan Sprague Dawley | 299 | 0.156
1.5 h, 50 mg/kg, Female, Harlan Sprague Dawley | 966 | 0.491
1.5 h, 50 mg/kg, Male, F344 | 952 | 0.293
1.5 h, 50 mg/kg, Male, Harlan Sprague Dawley | 677 | 0.116
2 min, 25 mg/kg, Female, Harlan Sprague Dawley | 77.8 | 0.0297
2 min, 25 mg/kg, Male, Harlan Sprague Dawley | 21 | 0.0452
2 min, 50 mg/kg, Female, Harlan Sprague Dawley | 44.8 | 0.109
2 min, 50 mg/kg, Male, Harlan Sprague Dawley | 40.6 | 0.0119
3 h, 25 mg/kg, Female, Harlan Sprague Dawley | 390 | 0.104
3 h, 25 mg/kg, Male, Harlan Sprague Dawley | 122 | 0.135
3 h, 50 mg/kg, Female, Harlan Sprague Dawley | 517 | 0.214
3 h, 50 mg/kg, Male, Harlan Sprague Dawley | 1130 | 0.255
5 min, 25 mg/kg, Male, Harlan Sprague Dawley | 414 | 0.146
5 min, 50 mg/kg, Female, F344 | 2010 | 1.48
5 min, 50 mg/kg, Female, Harlan Sprague Dawley | 508 | 0.427
6 h, 25 mg/kg, Female, Harlan Sprague Dawley | 270 | 0.0847
6 h, 25 mg/kg, Male, Harlan Sprague Dawley | 77.1 | 0.119
6 h, 50 mg/kg, Female, F344 | 437 | 0.146
6 h, 50 mg/kg, Female, Harlan Sprague Dawley | 648 | 0.209
6 h, 50 mg/kg, Male, Harlan Sprague Dawley | 518 | 0.174
10 min, 25 mg/kg, Male, Harlan Sprague Dawley | 689 | 0.323
10 min, 50 mg/kg, Female, F344 | 4550 | 1.2
10 min, 50 mg/kg, Female, Harlan Sprague Dawley | 1030 | 0.547
10 min, 50 mg/kg, Male, F344 | 6400 | 2.2
10 min, 50 mg/kg, Male, Harlan Sprague Dawley | 6510 | 2.05
12 h, 25 mg/kg, Female, Harlan Sprague Dawley | 12.7 | 0.00331
12 h, 25 mg/kg, Male, Harlan Sprague Dawley | – | 0.0164
12 h, 50 mg/kg, Female, Harlan Sprague Dawley | 48.5 | 0.0243
12 h, 50 mg/kg, Male, Harlan Sprague Dawley | 31.7 | 0.0116

dosed: 76231-76-0, 3.0 mg/kg, iv, F344
Details | concentration in brain, [1] [ng/g] | concentration in plasma, [2] [µg/mL]
2 h, Female | 16.8 | 0.00441
2.5 h, Female | 11.6 | 0.00279
3 h, Female | 11.6 | –
4 h, Male | 26.3 | –
12 h, Male | – | 0.00395

O=S(=O)([O-])C(F)(F)C(F)(F)C(F)(F)C(F)(F)C(F)(F)C(F)(F)F.[K+] [Perfluorohexane-1-sulphonic acid – potassium salt]
dosed: Perfluorohexane-1-sulphonic acid – potassium salt, oral
Details | concentration in brain [ng/g] | concentration in plasma [µg/mL]
[1], 3 h, 16 mg/kg, Female, F344 | 1890 | –
[1], 3 h, 16 mg/kg, Female, Harlan Sprague Dawley | 1170 | –
[1], 6 h, 16 mg/kg, Female, F344 | 1490 | –
[1], 6 h, 16 mg/kg, Female, Harlan Sprague Dawley | 1070 | –
[1], 12 h, 16 mg/kg, Female, F344 | 2110 | –
[1], 12 h, 16 mg/kg, Female, Harlan Sprague Dawley | 951 | –
[1], 24 h, 16 mg/kg, Female, F344 | 1460 | –
[1], 24 h, 16 mg/kg, Female, Harlan Sprague Dawley | 731 | –
[1], 48 h, 16 mg/kg, Female, Harlan Sprague Dawley | 515 | –
[1], 192 h, 16 mg/kg, Female, F344 | 847 | –
[1], 528 h, 16 mg/kg, Female, F344 | 523 | –
[2], 0.25 h, 4 mg/kg, Male, F344 | – | 9.9
[2], 1 h, 4 mg/kg, Male, F344 | – | 23.3
[2], 1 h, 16 mg/kg, Male, F344 | – | 73.5
[2], 3 h, 4 mg/kg, Male, F344 | – | 23.9
[2], 6 h, 4 mg/kg, Male, F344 | – | 31
[2], 12 h, 4 mg/kg, Male, F344 | – | 30.8
[2], 24 h, 4 mg/kg, Male, F344 | – | 27.4
[2], 192 h, 4 mg/kg, Male, F344 | – | 16.2
[2], 528 h, 4 mg/kg, Male, F344 | – | 11.3
[2], 864 h, 4 mg/kg, Male, F344 | – | 2.51
[2], 1200 h, 4 mg/kg, Male, F344 | – | 7.07

O=C(O)COc1ccc(Cl)cc1Cl [2,4-Dichlorophenoxyacetic acid]
concentration in plasma [µg/mL], [3]
Details | 1.0 mg/kg | 2.0 mg/kg | 5.2 mg/kg
0.25 h, iv | 6.98 | – | –
0.25 h, oral | 1.21 | 5.3 | 16
0.5 h, oral | 3.03 | 3.48 | 16.8
1 h, iv | 2.73 | – | –
2 h, oral | 0.486 | 2.9 | 16
2.5 h, iv | 0.951 | – | –
2.5 min, iv | 7.58 | – | –
2.5 min, oral | 2.07 | 3.2 | –
3 h, oral | 0.47 | 1.95 | 12.8
4 h, iv | 1.2 | – | –
4 h, oral | 0.164 | – | 6.84
5 min, iv | 7.19 | – | –
5 min, oral | 3.13 | 5.97 | 11.3
6 h, iv | 0.235 | – | –
6 h, oral | 0.123 | 0.39 | 1.25
8 h, oral | 0.12 | – | –
10 h, oral | – | – | 0.459
10 min, iv | 7.29 | – | –
10 min, oral | 1.36 | 5.5 | –

[2], dosed: 2,4-Dichlorophenoxyacetic acid, Male, Sprague-Dawley
Details | concentration in plasma [µg/mL]
0.25 h, 2.0 mg/kg, iv | 12.2
0.25 h, 7.0 mg/kg, oral | 9.67
0.5 h, 2.0 mg/kg, iv | 7.63
0.5 h, 7.0 mg/kg, oral | 4.67
0.75 h, 2.0 mg/kg, iv | 4.75
2 h, 2.0 mg/kg, iv | 0.376
2 h, 7.0 mg/kg, oral | 6.51
2.5 h, 2.0 mg/kg, iv | 2.04
2.5 min, 2.0 mg/kg, iv | 24.8
2.5 min, 7.0 mg/kg, oral | 9.34
3 h, 2.0 mg/kg, iv | 0.863
3 h, 7.0 mg/kg, oral | 3.57
3.5 h, 2.0 mg/kg, iv | 0.858
4 h, 2.0 mg/kg, iv | 0.482
4 h, 7.0 mg/kg, oral | 7.74
5 h, 7.0 mg/kg, oral | 4.72
6 h, 7.0 mg/kg, oral | 0.472
10 min, 2.0 mg/kg, iv | 14.1
10 min, 7.0 mg/kg, oral | 12.5

C=CCc1ccc(OC)c(OC)c1 [Methyleugenol]
concentration in plasma [µg/mL], [2], dosed: Methyleugenol, 37 mg/kg
Details | Female | Male
0.25 h, iv, F344 | 7.96 | 7.18
0.5 h, iv, F344 | 2.47 | 2.44
0.5 h, oral, F344/N | 0.0273 | 0.282
0.75 h, iv, F344 | 1.1 | 3.23
1 h, oral, F344/N | – | 0.243
1.5 h, iv, F344 | 0.684 | 0.61
1.5 h, oral, F344/N | – | 0.0396
2 h, oral, F344/N | – | 0.0174
2 min, iv, F344 | 57.8 | 32.2
2 min, oral, F344/N | 0.0292 | 0.0351
3 h, iv, F344 | 0.215 | 0.232
3 h, oral, F344/N | – | 0.0124
4 h, oral, F344/N | – | 0.0178
5 h, oral, F344/N | – | 0.0156
5 min, iv, F344 | 27.4 | 26.7
5 min, oral, F344/N | 0.108 | 0.0812
6 h, iv, F344 | – | 0.175
8 h, oral, F344/N | 0.0178 | 0.00671
10 min, oral, F344/N | 0.345 | 0.369
20 min, oral, F344/N | 0.267 | 0.233

CCC1(c2ccccc2)C(=O)NCNC1=O [Primidone]
concentration in plasma [µg/mL], [2], dosed: Primidone, oral
Details | 0.25 h | 0.5 h | 1.5 h | 3 h | 6 h | 9 h | 12 h | 18 h | 22 h
30 mg/kg, Female, F344 | 18.1 | – | 23.9 | 24.9 | 11.9 | 5.7 | 2.2 | 0.5 | –
30 mg/kg, Male, F344 | 8.9 | – | 10 | 6.7 | 0.5 | – | – | – | –
80 mg/kg, Female, F344 | 16.9 | 40 | 48.8 | 75.9 | 36.4 | 23.4 | 12.6 | 3.6 | 0.4
80 mg/kg, Female, Harlan Sprague-Dawley | 9.9 | 27.2 | – | – | – | – | 1.5 | – | –
80 mg/kg, Male, F344 | – | – | 34.7 | 37.1 | 14 | 4 | – | – | –
130 mg/kg, Female, F344 | – | 19.6 | 78.9 | 53.3 | 24.6 | 53.8 | 5.5 | – | 0.1
130 mg/kg, Female, Harlan Sprague-Dawley | – | – | 51.9 | – | – | – | – | – | –
130 mg/kg, Male, F344 | – | – | 51.5 | – | 22.8 | 9 | – | – | –
130 mg/kg, Male, Harlan Sprague Dawley | – | 55.1 | – | 100 | – | – | 22.3 | – | –
